Results from ChEMBL document CHEMBL1155220, “The medicinal chemistry of dengue fever” (J Med Chem, 2009).
≈ marks a conversion by molar mass, not a printed value.

How the values were obtained:
[1] = Inhibition of Dengue virus NS3 helicase
Dengue virus [2] = test: Inhibition of Dengue virus NS3 helicase at 100 uM
[3] = Inhibition of Dengue virus IMPDH
Dengue virus [4] = test: Antiviral activity against Dengue virus; format: functional, organism-based
Dengue virus [5] = test: Antiviral activity against Dengue virus by cell based assay; format: functional, organism-based
[6] = Inhibition of Dengue virus N7-methyl transferase
[7] = Inhibition of Dengue virus 2'-O-methyl transferase
Dengue virus [8] = test: Antiviral activity against Dengue virus assessed as inhibition of virus-induced cytopathic effect by cell based assay; format: functional, organism-based
Dengue virus [9] = test: Antiviral activity against Dengue virus assessed as reduction of virus yield by cell based assay; format: functional, organism-based
[10] = Inhibition of Dengue virus sEnvelope glycoprotein binding to immobilized heparin

**Q.** With CO[C@@H]1[C@H](O)[C@@H](CO)O[C@H]1n1cnc2c(=O)[nH][nH]c(=O)c21 as the molecule, how does the IC50 [1] read?
**A.** 30 µM

**Q.** What about the inhibition (Dengue virus [2]) of the same molecule?
**A.** 30%

**Q.** For C#Cc1c(C(N)=O)ncn1[C@@H]1O[C@H](CO)[C@@H](O)[C@H]1O, which IC50 [3] is on record?
**A.** 38 mg/L (≈ 142 µM)

**Q.** Which IC50 (Dengue virus [4]) does the source give for CCN(CCCN(CC)C(=O)c1ccc(O)cc1)C(=O)c1ccc(O)cc1 here?
**A.** 2000 µM

**Q.** With CN(CCCNC(=O)c1ccc(O)cc1)CCCNC(=O)c1ccc(O)cc1 as the molecule, how does the IC50 (Dengue virus [4]) read?
**A.** 2000 µM

**Q.** For O=C(O)/C=C/c1ccc(OS(=O)(=O)O)cc1, which IC50 (Dengue virus [4]) is on record?
**A.** 2000 µM

**Q.** With CN(CCCNC(=O)c1ccc(O)cc1)CCCNC(=O)c1ccc2cc(O)ccc2c1 as the molecule, how does the IC50 (Dengue virus [4]) read?
**A.** 294 µM

**Q.** With CCN(CCOC(=O)/C=C/c1ccc(O)cc1)Cc1cc(Cl)ccc1O as the molecule, how does the IC50 (Dengue virus [4]) read?
**A.** 46 µM

**Q.** Which EC50 (Dengue virus [5]) does the source give for O=c1cnn([C@@H]2O[C@H](CO)[C@@H](O)[C@H]2O)c(=O)[nH]1 [6-AZAURIDINE] here?
**A.** 0.1 mg/L

**Q.** For O=C(O)C1=CC(=C(c2ccc(O)c(C(=O)O)c2)c2ccc(O)c(C(=O)O)c2)C=CC1=O [AURINTRICARBOXYLIC ACID], which IC50 [6] is on record?
**A.** 2.3 µM

**Q.** What about the IC50 [7] of the same molecule?
**A.** 127 µM

**Q.** Which EC50 (Dengue virus [5]) does the source give for C[C@@]1(O)[C@H](O)[C@@H](CO)O[C@H]1n1ccc2c(N)ncnc21 [BETA-2'-C-METHYL-7-DEAZA-ADENOSINE] here?
**A.** 15 µM

**Q.** Which IC50 (Dengue virus [4]) does the source give for O[C@H]1[C@H](O)[C@@H](O)CN2CC[C@H](O)[C@H]12 [CASTANOSPERMINE] here?
**A.** 1 µM

**Q.** For CN[C@@H]1[C@@H](O)[C@@H](O[C@@H]2[C@@H](O)[C@H](O[C@H]3O[C@H]([C@@H](C)O)[C@@H](O)[C@H](O)[C@H]3N)[C@@H](N)C[C@H]2N)OC[C@]1(C)O [GENETICIN], which EC50 (Dengue virus [8]) is on record?
**A.** 6 µM

**Q.** What about the EC50 (Dengue virus [9]) of the same molecule?
**A.** 4 µM

**Q.** For COc1cc(NC(=O)Nc2cccc(CNC(=O)O[C@H]3CCOC3)c2)ccc1-c1cnco1 [MERIMEPODIB], which IC50 (Dengue virus [4]) is on record?
**A.** 8 µM

**Q.** Which IC50 [3] does the source give for COc1c(C)c2c(c(O)c1C/C=C(\C)CCC(=O)O)C(=O)OC2 [MYCOPHENOLIC ACID] here?
**A.** 0.1 mg/L (≈ 0.312 µM)

**Q.** With NC(=O)c1ncn([C@@H]2O[C@H](CO)[C@@H](O)[C@H]2O)n1 [RIBAVIRIN] as the molecule, how does the EC50 (Dengue virus [4]) read?
**A.** 49 mg/L (≈ 201 µM)

**Q.** And the IC50 [3]?
**A.** 1.6 mg/L (≈ 6.55 µM)

**Q.** Which IC50 [10] does the source give for Cc1ccc(C(=O)Nc2ccc(S(=O)(=O)O)c3cc(S(=O)(=O)O)cc(S(=O)(=O)O)c23)cc1NC(=O)c1cccc(NC(=O)Nc2cccc(C(=O)Nc3cc(C(=O)Nc4ccc(S(=O)(=O)O)c5cc(S(=O)(=O)O)cc(S(=O)(=O)O)c45)ccc3C)c2)c1 [SURAMIN] here?
**A.** 0.7 µM
